# System: Japanese patients with R/R iNHL
# Experiment: Phase 1 dose-escalation study: safety and tolerability (TEAEs, DLTs)
# Assay type: in vivo
# From the text: Japanese patients aged ≥ 20 years with R/R iNHL histologically confirmed as FL, nodal MZL, extra-nodal MZL of mucosa-associated lymphoid tissue, small lymphocytic lymphoma, lymphoplasmacytic lymphoma, Waldenström’s macroglobulinemia, or equivalent, according to World Health Organization classification, were eligible for this study. Other key eligibility criteria included being PI3K inhibitor therapy-naïve and an Eastern Cooperative Oncology Group performance status of 0 or 1. Further details of inclusion and exclusion criteria are provided in Supplementary Table 1.
# This was a multicenter, open-label, dose-escalation, phase 1 study in Japan. All patients received oral zandelisib once daily at the same time each day, at least 1 h before or 2 h after a meal (CS: continuous schedule). Each treatment cycle was 28 days. Definitions of the DLTs described in this study can be found in Supplementary Table 2. The observation period for DLTs was from day 1 of Cycle 1 to day 1 of Cycle 2. Zandelisib was administered until disease progression or unacceptable toxicity. In the event of an AE, patients could be switched to IDT. In the case of disease progression while receiving IDT, patients could be switched back to CS per the investigator’s discretion.
# A starting dose of 45 mg was set for investigating patient safety. This study adopted a standard 3 + 3 design. […] If DLTs occurred in 2 or more patients, the study was planned to be suspended pending a safety evaluation. If a DLT occurred in 1 patient, 3 further patients were added to cohort 1. If DLTs occurred in 0/3 or 1/6 patients in cohort 1, dosing in cohort 2 commenced (n = 6; 60 mg/day). If the incidence of DLTs in cohort 2 was ≤ 1/6, the maximum tolerated dose was not determined, and the dose in cohort 2 was to be selected as the recommended Japanese phase 2 dose.
# The primary endpoint was the safety [number of patients with treatment-emergent adverse events (TEAEs), based on Common Terminology Criteria for Adverse Events version 5.0] and tolerability (including laboratory values, vital signs, and electrocardiogram performance) of zandelisib in Japanese patients. Hepatobiliary disorder, aspartate/alanine (AST/ALT) increased, diarrhea/colitis, organizing pneumonia, stomatitis, or rash were defined as irAEs in this manuscript. Secondary endpoints included PK (plasma concentrations and PK parameters) and the efficacy of zandelisib. […] The PK parameters for Cycle 1 day 1 and Cycle 2 day 1 were calculated for each patient by non-compartmental analysis. PK parameters included maximum plasma drug concentration (Cmax), area under the plasma concentration–time curve (AUC) from time zero to the last measurable point (AUC0–t), the AUC from time zero to infinity (AUC0-inf), and terminal half-life (t1/2).
compound,measurement,setting,value
CN1CCC(c2ccccc2CC(C)(C)Nc2nc(N3CCOCC3)nc(-n3c(C(F)F)nc4ccccc43)n2)CC1 [zandelisib],"TEAE Cytomegalovirus viremia, Grade ≥ 3","Total, N = 9",0 n (%)
same,"TEAE Decreased appetite, All grades","Total, N = 9",1 (11.1) n (%)
same,"TEAE Decreased appetite, Grade ≥ 3","Total, N = 9",1 (11.1) n (%)
same,"TEAE Diarrhea, All grades","Total, N = 9",4 (44.4) n (%)
same,"TEAE Diarrhea, Grade ≥ 3","Total, N = 9",3 (33.3) n (%)
same,"TEAE Drug hypersensitivity, All grades","Total, N = 9",1 (11.1) n (%)
same,"TEAE Drug hypersensitivity, Grade ≥ 3","Total, N = 9",0 n (%)
same,"TEAE Drug-induced liver injury, All grades","Total, N = 9",1 (11.1) n (%)
same,"TEAE Drug-induced liver injury, Grade ≥ 3","Total, N = 9",1 (11.1) n (%)
same,"TEAE Dry eye, All grades","Total, N = 9",1 (11.1) n (%)
same,"TEAE Dry eye, Grade ≥ 3","Total, N = 9",0 n (%)
same,"TEAE Dry skin, All grades","Total, N = 9",2 (22.2) n (%)
same,"TEAE Dry skin, Grade ≥ 3","Total, N = 9",0 n (%)
same,"TEAE Dysgeusia, All grades","Total, N = 9",1 (11.1) n (%)
same,"TEAE Dysgeusia, Grade ≥ 3","Total, N = 9",0 n (%)
same,"TEAE Dyspnea, All grades","Total, N = 9",1 (11.1) n (%)
same,"TEAE Dyspnea, Grade ≥ 3","Total, N = 9",1 (11.1) n (%)
same,"TEAE Ear and labyrinth disorders (SOC), All grades","Total, N = 9",1 (11.1) n (%)
same,"TEAE Ear and labyrinth disorders (SOC), Grade ≥ 3","Total, N = 9",0 n (%)
same,"TEAE Eczema, All grades","Total, N = 9",1 (11.1) n (%)
same,"TEAE Eczema, Grade ≥ 3","Total, N = 9",0 n (%)
same,"TEAE Eosinophil count increased, All grades","Total, N = 9",1 (11.1) n (%)
same,"TEAE Eosinophil count increased, Grade ≥ 3","Total, N = 9",0 n (%)
same,"TEAE Erythema multiforme, All grades","Total, N = 9",1 (11.1) n (%)
same,"TEAE Erythema multiforme, Grade ≥ 3","Total, N = 9",0 n (%)
same,"TEAE Eye disorders (SOC), All grades","Total, N = 9",2 (22.2) n (%)
same,"TEAE Eye disorders (SOC), Grade ≥ 3","Total, N = 9",0 n (%)
same,"TEAE Flank pain, All grades","Total, N = 9",1 (11.1) n (%)
same,"TEAE Flank pain, Grade ≥ 3","Total, N = 9",0 n (%)
same,"TEAE GGT increased, All grades","Total, N = 9",1 (11.1) n (%)
same,"TEAE GGT increased, Grade ≥ 3","Total, N = 9",1 (11.1) n (%)
same,"TEAE Gastrointestinal disorders (SOC), All grades","Total, N = 9",6 (66.7) n (%)
same,"TEAE Gastrointestinal disorders (SOC), Grade ≥ 3","Total, N = 9",4 (44.4) n (%)
same,"TEAE General disorders and administration site conditions (SOC), All grades","Total, N = 9",1 (11.1) n (%)
same,"TEAE General disorders and administration site conditions (SOC), Grade ≥ 3","Total, N = 9",0 n (%)
same,"TEAE Hepatic function abnormal, All grades","Total, N = 9",2 (22.2) n (%)
same,"TEAE Hepatic function abnormal, Grade ≥ 3","Total, N = 9",1 (11.1) n (%)
same,"TEAE Hepatobiliary disorders (SOC), All grades","Total, N = 9",3 (33.3) n (%)
same,"TEAE Hepatobiliary disorders (SOC), Grade ≥ 3","Total, N = 9",2 (22.2) n (%)
same,"TEAE Herpes simplex, All grades","Total, N = 9",1 (11.1) n (%)
same,"TEAE Herpes simplex, Grade ≥ 3","Total, N = 9",0 n (%)
same,"TEAE Herpes zoster, All grades","Total, N = 9",1 (11.1) n (%)
same,"TEAE Herpes zoster, Grade ≥ 3","Total, N = 9",0 n (%)
same,"TEAE Hypoesthesia, All grades","Total, N = 9",1 (11.1) n (%)
same,"TEAE Hypoesthesia, Grade ≥ 3","Total, N = 9",0 n (%)
same,"TEAE Hypogammaglobulinemia, All grades","Total, N = 9",2 (22.2) n (%)
same,"TEAE Hypogammaglobulinemia, Grade ≥ 3","Total, N = 9",0 n (%)
same,"TEAE Immune system disorders (SOC), All grades","Total, N = 9",3 (33.3) n (%)
same,"TEAE Immune system disorders (SOC), Grade ≥ 3","Total, N = 9",0 n (%)
same,"TEAE Infections and infestations (SOC), All grades","Total, N = 9",6 (66.7) n (%)
same,"TEAE Infections and infestations (SOC), Grade ≥ 3","Total, N = 9",0 n (%)
same,"TEAE Infusion site extravasation, All grades","Total, N = 9",1 (11.1) n (%)
same,"TEAE Infusion site extravasation, Grade ≥ 3","Total, N = 9",0 n (%)
same,"TEAE Insomnia, All grades","Total, N = 9",1 (11.1) n (%)
same,"TEAE Insomnia, Grade ≥ 3","Total, N = 9",0 n (%)
same,"TEAE Investigations (SOC), All grades","Total, N = 9",9 (100.0) n (%)
same,"TEAE Investigations (SOC), Grade ≥ 3","Total, N = 9",6 (66.7) n (%)
same,"TEAE Joint effusion, All grades","Total, N = 9",1 (11.1) n (%)
same,"TEAE Joint effusion, Grade ≥ 3","Total, N = 9",0 n (%)
same,"TEAE Lymphocyte count decreased, All grades","Total, N = 9",3 (33.3) n (%)
same,"TEAE Lymphocyte count decreased, Grade ≥ 3","Total, N = 9",1 (11.1) n (%)
same,"TEAE Metabolism and nutrition disorders (SOC), All grades","Total, N = 9",1 (11.1) n (%)
same,"TEAE Metabolism and nutrition disorders (SOC), Grade ≥ 3","Total, N = 9",1 (11.1) n (%)
same,"TEAE Muscle spasms, All grades","Total, N = 9",1 (11.1) n (%)
same,"TEAE Muscle spasms, Grade ≥ 3","Total, N = 9",0 n (%)
same,"TEAE Musculoskeletal and connective tissue disorders (SOC), All grades","Total, N = 9",4 (44.4) n (%)
same,"TEAE Musculoskeletal and connective tissue disorders (SOC), Grade ≥ 3","Total, N = 9",0 n (%)
same,"TEAE Nasopharyngitis, All grades","Total, N = 9",5 (55.6) n (%)
same,"TEAE Nasopharyngitis, Grade ≥ 3","Total, N = 9",0 n (%)
same,"TEAE Nausea, All grades","Total, N = 9",3 (33.3) n (%)
same,"TEAE Nausea, Grade ≥ 3","Total, N = 9",0 n (%)
same,"TEAE Nervous system disorders (SOC), All grades","Total, N = 9",1 (11.1) n (%)
same,"TEAE Nervous system disorders (SOC), Grade ≥ 3","Total, N = 9",0 n (%)
same,"TEAE Neutrophil count decreased, All grades","Total, N = 9",8 (88.9) n (%)
same,"TEAE Neutrophil count decreased, Grade ≥ 3","Total, N = 9",5 (55.6) n (%)
same,"TEAE Oral herpes, All grades","Total, N = 9",1 (11.1) n (%)
same,"TEAE Oral herpes, Grade ≥ 3","Total, N = 9",0 n (%)
same,"TEAE Organizing pneumonia, All grades","Total, N = 9",1 (11.1) n (%)
same,"TEAE Organizing pneumonia, Grade ≥ 3","Total, N = 9",1 (11.1) n (%)
same,"TEAE Oropharyngeal pain, All grades","Total, N = 9",2 (22.2) n (%)
same,"TEAE Oropharyngeal pain, Grade ≥ 3","Total, N = 9",0 n (%)
same,"TEAE Pancreatitis, All grades","Total, N = 9",1 (11.1) n (%)
same,"TEAE Pancreatitis, Grade ≥ 3","Total, N = 9",1 (11.1) n (%)
same,"TEAE Pharyngeal paresthesia, All grades","Total, N = 9",1 (11.1) n (%)
same,"TEAE Pharyngeal paresthesia, Grade ≥ 3","Total, N = 9",0 n (%)
same,"TEAE Pruritus, All grades","Total, N = 9",1 (11.1) n (%)
same,"TEAE Pruritus, Grade ≥ 3","Total, N = 9",0 n (%)
same,"TEAE Psychiatric disorders (SOC), All grades","Total, N = 9",1 (11.1) n (%)
same,"TEAE Psychiatric disorders (SOC), Grade ≥ 3","Total, N = 9",0 n (%)
same,"TEAE Rash maculopapular, All grades","Total, N = 9",5 (55.6) n (%)
same,"TEAE Rash maculopapular, Grade ≥ 3","Total, N = 9",1 (11.1) n (%)
same,"TEAE Rash, All grades","Total, N = 9",4 (44.4) n (%)
same,"TEAE Rash, Grade ≥ 3","Total, N = 9",0 n (%)
same,"TEAE Renal and urinary disorders (SOC), All grades","Total, N = 9",1 (11.1) n (%)
same,"TEAE Renal and urinary disorders (SOC), Grade ≥ 3","Total, N = 9",0 n (%)
same,"TEAE Renal impairment, All grades","Total, N = 9",1 (11.1) n (%)
same,"TEAE Renal impairment, Grade ≥ 3","Total, N = 9",0 n (%)
same,"TEAE Respiratory, thoracic, and mediastinal disorders (SOC), All grades","Total, N = 9",4 (44.4) n (%)
same,"TEAE Respiratory, thoracic, and mediastinal disorders (SOC), Grade ≥ 3","Total, N = 9",1 (11.1) n (%)
same,"TEAE Skin and subcutaneous tissue disorders (SOC), All grades","Total, N = 9",9 (100.0) n (%)
same,"TEAE Skin and subcutaneous tissue disorders (SOC), Grade ≥ 3","Total, N = 9",1 (11.1) n (%)
same,"TEAE Stomatitis, All grades","Total, N = 9",2 (22.2) n (%)
same,"TEAE Stomatitis, Grade ≥ 3","Total, N = 9",1 (11.1) n (%)
same,"TEAE Subcutaneous abscess, All grades","Total, N = 9",1 (11.1) n (%)
same,"TEAE Subcutaneous abscess, Grade ≥ 3","Total, N = 9",0 n (%)
same,"TEAE Tinnitus, All grades","Total, N = 9",1 (11.1) n (%)
same,"TEAE Tinnitus, Grade ≥ 3","Total, N = 9",0 n (%)
same,"TEAE Urticaria, All grades","Total, N = 9",1 (11.1) n (%)
same,"TEAE Urticaria, Grade ≥ 3","Total, N = 9",0 n (%)
same,"TEAE Vomiting, All grades","Total, N = 9",2 (22.2) n (%)
same,"TEAE Vomiting, Grade ≥ 3","Total, N = 9",0 n (%)
same,"TEAE WBC count decreased, All grades","Total, N = 9",4 (44.4) n (%)
same,"TEAE WBC count decreased, Grade ≥ 3","Total, N = 9",0 n (%)
same,discontinued treatment due to TEAEs,"cohort 1, 45 mg/day",2 patients
same,discontinued treatment due to TEAEs,"cohort 2, 60 mg/day",2 patients
same,discontinuation due to irAEs,during IDT,no discontinuation due to irAEs occurred during IDT
same,recurrence of Grade ≥ 3 irAEs and any grade irAEs leading to drug interruption,during IDT,4/8
